The values that follow come from patent US20250281462A1, “THERAPEUTICALLY EFFECTIVE ORAL ADMINISTRATION OF A 2 ARYLBENZIMIDAZOLE” (Tranquis Therapeutics, Inc., priority 2021, published 2025).

A short description of data set [1]: clinical. The conditions noted are these: male, human, in vivo, po; for half-life: T1/2.
For data set [2] the following is noted: human, in vivo, 120 mg.
Data set [3] in a line: clinical. The following applies: male, human, in vivo, 120 mg.
The conditions of data set [4]: background statement; cited from earlier work.
Data set [5] has as its system PGC-1α. The data set can be described thus: PGC-1α protein expression in BV2 cells (Western blot). The conditions noted are these: 20 μM, 24 hours. The data set is classed as cell-based, murine. As for the experimental part: Frozen BV2 murine microglia cells were thawed and propagated in complete media (RPMI, 10% heat-inactivated FBS, 1% L-glutamine, 1% Pen-Strep) until the growth rate reached log phase. For protein expression analysis, DMSO (1:1000 final dilution) or TQS-168 in DMSO (1:1000 final dilution) at 20 μM was added to cell cultures. After 24 hours stimulation, supernatant was discarded and cell lysis buffer (Cell Signal) was added to adherent cells to extract protein. Total protein was quantified and normalized across all samples by BCA assays. Two replicates of untreated cultures and three replicates of TQS-168-treated cultures were investigated, with each replicate containing lysates from 5,000,000 BV2 myeloid cells. PGC1α expression was detected by Western Blot using an anti-PGC-1α antibody (SC13067, Santa Cruz Biotechnology, 1:500 dilution). Anti-[…] antibody (SC8432, Santa Cruz Biotechnology, 1:2000 dilution) was used to quantify beta-actin, a housekeeping gene whose expression level is not known to be affected by TQS-168. […] Total protein was quantified and normalized across all samples by BCA assays. PGC-1α was subsequently detected by Western Blot using an anti-PGC-1α antibody (SC13067, Santa Cruz Biotechnology, 1:500 dilution). β-actin was detected with an anti-β-actin antibody (SC8432, Santa Cruz Biotechnology, 1:2000 dilution). […]

Data set [6] has as its system TNFα. The data set can be described thus: TNFα release by LPS-stimulated BV2 cells (ELISA). Type of data set: cell-based, murine. As for the experimental part: First, 100 μL of supernatant was removed from Cell Plate and transferred to a Dilution Plate, which was then centrifuged at 216×g for 10 minutes to remove particulates. The dilution plate was either assayed immediately or aliquots were taken and stored at ≤−20° C.; repeated freeze-thaw cycles were avoided.
Next, a standard curve was prepared by first pipetting 900 ul of Calibrator Diluent RD5K into the […] tube, followed by 200 μl of the appropriate calibrator diluent in the remaining tubes. The stock solution was used to produce a dilution. The resulting tubes were then thoroughly mixed. The Mouse TNFα Standard ([…]) served as the high standard, and the Calibrator Diluent RD5T served as the zero standard at 0 pg/ml.
Assay Diluent RD1-63 (50 uL) was then added to the center of each well and mixed before and during its use. Then, 50 ul of either standard, control, or sample was added to the center of each well, and covered with adhesive strip. […]
Substrate solution (100 uL) was then added to each well, incubated in the dark for 30 minutes at room temperature, followed by addition of 100 μl of Stop Solution and mixed. The optical density of each well was determined within 30 minutes by using a microplate reader set to 450 nm.
Plates were read on a Spectrostar Nano machine with built-in MARS data analysis at […] and 570 nM. […]
A general note: ELISA stands for enzyme-linked immunosorbent assay.

The test system of data set [7] is older mice. The conditions noted are these: oral 25 mg/kg; cited from earlier work.

Molecules are shown by their SMILES. Several values for one entry are separate records, joined by “and”; a condition that tells them apart may be missing. Equal values may be shown once. Entries after “also recorded” stand apart in the source; their conditions may differ. Read-outs that look alike come from different tables or passages of the source.

The term AUC(0-t) denotes the area under the concentration-time curve up to a stated or last time point. As usually defined, the AUC(0-inf) is the area under the concentration-time curve extrapolated to infinity. A higher AUC(0-inf) goes with more exposure. What is called Cmax is the peak of the concentration-time curve. By half-life is commonly meant how long it takes for the measured level to halve. Lower therefore signals fast loss. One may read the Tmax as the time from dosing to the highest level. A word on the AUC: it is concentration integrated over time. A lower AUC goes with less exposure. The term inhibition denotes the drop in the measured response relative to a control, in per cent.

In the case of `CC(C)(C)c1ccc(-c2nc3cc(O)ccc3[nH]2)cc1` [TQS-621], the AUC(0-t) was 383 ng·h/mL in data set [1] (60 mg, AUC(0-24)); 401 ng·h/mL in data set [1] (60 mg, AUC(0-last)); 1170 ng·h/mL in data set [1] (90 mg, AUC(0-24)); 4250 ng·h/mL in data set [1] (270 mg, AUC(0-24)); 4760 ng·h/mL in data set [1] (270 mg, AUC(0-last)); 10800 ng·h/mL in data set [1] (540 mg, AUC(0-24)). In addition, the AUC(0-t) in data set [1] (540 mg, AUC(0-last)) was 12000 ng·h/mL. The AUC(0-inf) in data set [1] (60 mg) came to 410 ng·h/mL; in data set [1] (90 mg), 1200 ng·h/mL; in data set [1] (270 mg), 4950 ng·h/mL; in data set [1] (540 mg) it was 12700 ng·h/mL. Further, the Cmax was 65.3 ng/mL and 250 nM in data set [1] (60 mg); 214 ng/mL and 800 nM in data set [1] (90 mg); 2330 nM in data set [1] (270 mg); 1110 ng/mL and 4.17 µM in data set [1] (540 mg); 331 ng/mL and 1.24 µM in data set [3] (Cmax). In addition, the half-life in data set [1] (60 mg) was 4.89 h; in data set [1] (180 mg), 9.1 h; in data set [1] (270 mg) it was 10.4 h; in data set [1] (540 mg) it was 11.3 h; in data set [3], 10.2 h. The Tmax in data set [1] (60 mg) was 2.5 h; in data set [1] (180 mg) it was 1.5 h; in data set [1] (270 mg) it was 2 h; in data set [1] (540 mg) it was 4 h; in data set [2] (male) it was 1.75 h; in data set [3] (Tmax), 1.5 h. Also, the Tmax came to 1.75 h in data set [3] (Tmax (median)) and 1.5 h in data set [3] (po, Tmax (median)). Besides, the “AR AUC” value in data set [2] worked out at 1.46. Besides, in data set [2], the “AR Cmax” value was found to be 1.03. Also, in data set [2] (male), the T1/2 was 10.2 h. Further, the “accumulation ratio based on AUC(0-tau)” value in data set [2] (male, 7 days) was determined as 1.46. In data set [2] (male, 7 days), the “accumulation ratio based on Cmax” value worked out at 1.30. For the same compound, the AUC in data set [3] (AUC(0-tau)) came out at 2270 ng·h/mL.
Take `CC(C)(C)c1ccc(-c2nc3ccccc3[nH]2)cc1` [TQS-168, 2-(4-tert-butylphenyl)-1H-benzimidazole]: the solubility result in data set [4] is listed as “highly insoluble”. Also, the “induction of PGC-1α protein expression” value in data set [5] is “induces PGC-1α protein expression; also recorded: induction of PGC-1α protein expression”. Also, in data set [6] (BV-2 cells, 0.3 ng/mL LPS, 10 μM TQS-168, ELISA, 24 hours), the “suppression of TNFα production” value is given as “about 25%”. For the same compound, the inhibition at 10 µM in data set [6] (Mus musculus, BV-2, 24 h, read-out: inhibition of TNFα production) was ~35%. Besides, in data set [7], the behavioral dysfunction entry is “alleviate behavioral dysfunction”, the “inflammatory cytokine production in microglia” value was “inhibit inflammatory cytokine production in microglia”, the “metabolic dysfunction in microglia” value was “suppress metabolic dysfunction in microglia” and the systemic inflammation entry is “suppress systemic inflammation”.
